# Assay results reported in paper PMC9402538, “Rational design of a sensitivity-enhanced tracer for discovering efficient APC–Asef inhibitors” (Nature Communications, 2022).
# “And” between values parts separate entries of the source, which are not always exact repeats. Equal entries are not always repeated. Where two headings read alike, the source gives them in different places. Where a SMILES comes first, the peptide text is derived from it. [ ]: non-standard residue; d: D form. The star is where a group is joined. Phe(4-tBu) = CC(C)(C)c1ccc(C[C@H](N)C(=O)O)cc1; Bpa = N[C@@H](Cc1ccc(C(=O)c2ccccc2)cc1)C(=O)O; Benzoyl(4-OMe) = COc1ccc(C(=O)*)cc1
# Target: T1, APC (303–739) (Homo sapiens, UniProt P25054)
# T1 sequence (P25054 303-739): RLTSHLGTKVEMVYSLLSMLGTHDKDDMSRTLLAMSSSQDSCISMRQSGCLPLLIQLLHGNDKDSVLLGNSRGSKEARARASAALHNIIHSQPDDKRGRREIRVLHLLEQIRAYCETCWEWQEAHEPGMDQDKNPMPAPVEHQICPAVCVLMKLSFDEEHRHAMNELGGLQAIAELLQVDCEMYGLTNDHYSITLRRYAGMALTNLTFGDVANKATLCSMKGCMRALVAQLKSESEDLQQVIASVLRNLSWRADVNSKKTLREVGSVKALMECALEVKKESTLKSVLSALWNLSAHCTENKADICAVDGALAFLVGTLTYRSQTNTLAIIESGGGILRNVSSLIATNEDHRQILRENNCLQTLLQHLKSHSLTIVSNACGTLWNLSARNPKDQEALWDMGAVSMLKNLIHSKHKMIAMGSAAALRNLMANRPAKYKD
# Assay: FP competitive assay using tracer 7
# Assay type: binding
# Experimental: FITC-labeled tracer peptides were obtained from Changzhou Kanglong Biotech Ltd. (Changzhou, Jiangsu, China). […]. The FP signal changes upon tracer binding were measured after 1.5 h of incubation using a Synergy neo microplate reader (BioTek Instruments, Inc.) and plotted against the protein concentration. The corresponding EC50 values were generated by fitting the curves with a nonlinear regression model. […]. To make a working solution, APC (303–739) was diluted in FP buffer (50 mM HEPES, pH 7.5, 300 mM NaCl, 1 mM EDTA, 1 mM DTT). The diluted APC protein (91 μL) was combined with a serial dilution of peptides (4 μL) and incubated at room temperature for 1 h, followed by the addition of 5 μL of 400 nM tracer 7. The FP signals were measured after 1.5 h of incubation at room temperature using a Synergy neo microplate reader. Three controls were included on each plate, i.e., blank (without protein and tracer), 100% inhibition (free tracer only), and 0% inhibition (protein/tracer complex only) controls. All experiments were performed in triplicate. The IC50 values of peptides were calculated by nonlinear regression analysis using GraphPad Prism 7.0 software.
# [1] = Conc. 0.0049 μM, individual repeats, Fig3b
# [2] = Conc. 0.0098 μM, individual repeats, Fig3b
# [3] = Conc. 0.0195 μM, individual repeats, Fig3b
# [4] = Conc. 0.0391 μM, individual repeats, Fig3b
# [5] = Conc. 0.0781 μM, individual repeats, Fig3b
# [6] = Conc. 0.1563 μM, individual repeats, Fig3b
# [7] = Conc. 0.3125 μM, individual repeats, Fig3b
# [8] = Conc. 0.625 μM, individual repeats, Fig3b
# [9] = Conc. 2.5 μM, individual repeats, Fig3b
# [10] = Conc. 5 μM, individual repeats, Fig3b
# [11] = Conc. 10 μM, individual repeats, Fig3b
# [12] = Conc. 20 μM, individual repeats, Fig3b
structure (smiles),measurement,setting,value
COc1ccc(C(=O)N[C@@H](C)C(=O)NCC(=O)N[C@@H](CCC(=O)O)C(=O)N[C@@H](CO)C(=O)N[C@@H](CC(C)C)C(=O)N[C@@H](Cc2ccc(O)cc2)C(=O)N[C@@H](Cc2ccc(C(=O)c3ccccc3)cc2)C(N)=O)cc1 [MAI-521] ({Benzoyl(4-OMe)}-AGESLY[Bpa]-NH2),inhibition at 0.0015 µM,"Conc. 0.0015 μM, individual repeats, Fig3b",1.5%
same,%inhibition,"Conc. 0.0024 μM, individual repeats, Fig3b",-0.4% and 2.8%
same,inhibition at 0.0031 µM,"Conc. 0.0031 μM, individual repeats, Fig3b",2%
same,%inhibition,[1],2.6%
same,inhibition at 0.0049 µM,[1],1.8%
same,inhibition at 0.006 µM,"Conc. 0.006 μM, individual repeats, Fig3b",3.2%
same,%inhibition,[2],10.8%
same,inhibition at 0.0098 µM,[2],6.3%
same,inhibition at 0.012 µM,"Conc. 0.012 μM, individual repeats, Fig3b",9%
same,%inhibition,[3],24.3%
same,inhibition at 0.0195 µM,[3],16%
same,inhibition at 0.024 µM,"Conc. 0.024 μM, individual repeats, Fig3b",22.1%
same,%inhibition,[4],41%
same,inhibition at 0.0391 µM,[4],35.5%
same,inhibition at 0.049 µM,"Conc. 0.049 μM, individual repeats, Fig3b",39.2%
same,%inhibition,[5],60.9%
same,inhibition at 0.0781 µM,[5],56.4%
same,inhibition at 0.098 µM,"Conc. 0.098 μM, individual repeats, Fig3b",74.8%
same,%inhibition,[6],75%
same,inhibition at 0.1563 µM,[6],74.4%
same,inhibition at 0.195 µM,"Conc. 0.195 μM, individual repeats, Fig3b",77.9%
same,%inhibition,[7],86.3%
same,inhibition at 0.3125 µM,[7],86%
same,inhibition at 0.391 µM,"Conc. 0.391 μM, individual repeats, Fig3b",87.6%
same,%inhibition,[8],93.8%
same,inhibition at 0.625 µM,[8],92%
same,inhibition at 0.781 µM,"Conc. 0.781 μM, individual repeats, Fig3b",92.8%
same,inhibition at 1.25 µM,"Conc. 1.25 μM, individual repeats, Fig3b",95.3%
same,inhibition at 1.563 µM,"Conc. 1.563 μM, individual repeats, Fig3b",95.7%
same,%inhibition,[9],98.9%
same,inhibition at 2.5 µM,[9],96.1%
same,inhibition at 3.125 µM,"Conc. 3.125 μM, individual repeats, Fig3b",97.1%
same,%inhibition,[10],100.8%
same,inhibition at 5 µM,[10],96.6%
same,inhibition at 6.25 µM,"Conc. 6.25 μM, individual repeats, Fig3b",98.3%
same,%inhibition,[11],101.1%
same,inhibition at 10 µM,[11],97.4%
same,inhibition at 12.5 µM,"Conc. 12.5 μM, individual repeats, Fig3b",97.7%
same,%inhibition,[12],101.7%
same,inhibition at 20 µM,[12],97%
same,IC50,"IC50 Repeat 1, tracer 7",0.0536 µM
same,IC50,"IC50 Repeat 2, tracer 7",0.054 µM
same,IC50,"IC50 Repeat 3, tracer 7",0.0516 µM
same,IC50,"IC50 mean, tracer 7, mean of three repeats",0.0531 µM
same,"mean (FP signal, FigS5)","Repeat 1, Conc. 0.0015 μM",296.3
same,"mean (FP signal, FigS5)","Repeat 1, Conc. 0.0031 μM",295
same,"mean (FP signal, FigS5)","Repeat 1, Conc. 0.006 μM",292
same,"mean (FP signal, FigS5)","Repeat 1, Conc. 0.012 μM",277.7
same,"mean (FP signal, FigS5)","Repeat 1, Conc. 0.024 μM",245
same,"mean (FP signal, FigS5)","Repeat 1, Conc. 0.049 μM",202.3
same,"mean (FP signal, FigS5)","Repeat 1, Conc. 0.098 μM",113.7
same,"mean (FP signal, FigS5)","Repeat 1, Conc. 0.195 μM",106
same,"mean (FP signal, FigS5)","Repeat 1, Conc. 0.391 μM",82
same,"mean (FP signal, FigS5)","Repeat 1, Conc. 0.781 μM",69
same,"mean (FP signal, FigS5)","Repeat 1, Conc. 1.563 μM",61.7
same,"mean (FP signal, FigS5)","Repeat 1, Conc. 3.125 μM",58.3
same,"mean (FP signal, FigS5)","Repeat 1, Conc. 6.25 μM",55.3
same,"mean (FP signal, FigS5)","Repeat 1, Conc. 12.5 μM",56.7
same,"mean (FP signal, FigS5)","Repeat 2, Conc. 0.0024 μM",282.7
same,"mean (FP signal, FigS5)","Repeat 2, Conc. 0.0049 μM",277.5
same,"mean (FP signal, FigS5)","Repeat 2, Conc. 0.0098 μM",267
same,"mean (FP signal, FigS5)","Repeat 2, Conc. 0.0195 μM",244.3
same,"mean (FP signal, FigS5)","Repeat 2, Conc. 0.0391 μM",199
same,"mean (FP signal, FigS5)","Repeat 2, Conc. 0.0781 μM",150.3
same,"mean (FP signal, FigS5)","Repeat 2, Conc. 0.1563 μM",108.7
same,"mean (FP signal, FigS5)","Repeat 2, Conc. 0.3125 μM",81.7
same,"mean (FP signal, FigS5)","Repeat 2, Conc. 0.625 μM",67.7
same,"mean (FP signal, FigS5)","Repeat 2, Conc. 1.25 μM",60
same,"mean (FP signal, FigS5)","Repeat 2, Conc. 2.5 μM",58
same,"mean (FP signal, FigS5)","Repeat 2, Conc. 5 μM",57
same,"mean (FP signal, FigS5)","Repeat 2, Conc. 10 μM",55
same,"mean (FP signal, FigS5)","Repeat 2, Conc. 20 μM",56
same,"mean (FP signal, FigS5)","Repeat 3, Conc. 0.0024 μM",286
same,"mean (FP signal, FigS5)","Repeat 3, Conc. 0.0049 μM",286.5
same,"mean (FP signal, FigS5)","Repeat 3, Conc. 0.0098 μM",266.5
same,"mean (FP signal, FigS5)","Repeat 3, Conc. 0.0195 μM",234
same,"mean (FP signal, FigS5)","Repeat 3, Conc. 0.0391 μM",193.7
same,"mean (FP signal, FigS5)","Repeat 3, Conc. 0.0781 μM",145.7
same,"mean (FP signal, FigS5)","Repeat 3, Conc. 0.1563 μM",111.7
same,"mean (FP signal, FigS5)","Repeat 3, Conc. 0.3125 μM",84.3
same,"mean (FP signal, FigS5)","Repeat 3, Conc. 0.625 μM",66.3
same,"mean (FP signal, FigS5)","Repeat 3, Conc. 1.25 μM",58.7
same,"mean (FP signal, FigS5)","Repeat 3, Conc. 2.5 μM",54
same,"mean (FP signal, FigS5)","Repeat 3, Conc. 5 μM",49.3
same,"mean (FP signal, FigS5)","Repeat 3, Conc. 10 μM",48.7
same,"mean (FP signal, FigS5)","Repeat 3, Conc. 20 μM",47.3
COc1ccc(C(=O)N[C@@H](C)C(=O)NCC(=O)N[C@@H](CCC(=O)O)C(=O)N[C@@H](CO)C(=O)N[C@@H](CC(C)C)C(=O)N[C@@H](Cc2ccc(O)cc2)C(=O)N[C@@H](Cc2ccc(C(C)(C)C)cc2)C(N)=O)cc1 [MAI-522] ({Benzoyl(4-OMe)}-AGESLY[Phe(4-tBu)]-NH2),IC50,"tracer 7, mean of three repeats, read-out: IC50 mean",0.147 µM
same,IC50,"tracer 7, read-out: IC50 Repeat 1",0.166 µM
same,IC50,"tracer 7, read-out: IC50 Repeat 2",0.144 µM
same,IC50,"tracer 7, read-out: IC50 Repeat 3",0.131 µM
